Laboratory results reported in the NIST ThermoML archive (doi:10.1016/j.jct.2016.04.003).

Experiment: xn = mol fraction of the nth substance listed
Details: for surface tension liquid-gas: Drop volume; for viscosity / speed of sound / mass density: 99 kPa, Liquid; for viscosity: Capillary tube (Ostwald / Ubbelohde) method; for speed of sound: Frequency=3 MHz, Sing-around technique in a fixed-path interferometer; for mass density: Vibrating tube method

CCCC[n+]1ccccc1.F[B-](F)(F)F [1-butylpyridinium tetrafluoroborate] + O
Details	mass density [kg/m3]	speed of sound [m/s]	surface tension liquid-gas [mN/m]	viscosity [mPa·s]
313.15 K, x1 = 0.0115	–	–	55.5	–
313.15 K, x1 = 0.0165	1021.2	1560	–	–
313.15 K, x1 = 0.0185	–	–	53	–
313.15 K, x1 = 0.0271	–	–	51.6	–
313.15 K, x1 = 0.0372	–	–	50.3	–
313.15 K, x1 = 0.0379	1049.2	1576.8	–	–
313.15 K, x1 = 0.0456	–	–	49.9	–
313.15 K, x1 = 0.047	–	–	–	0.845
313.15 K, x1 = 0.0863	1089.2	1590.3	–	–
313.15 K, x1 = 0.0942	–	–	48.5	–
313.15 K, x1 = 0.095	–	–	–	1.16
313.15 K, x1 = 0.101	1097.8	1591.9	–	–
313.15 K, x1 = 0.134	1113.3	1593.4	–	–
313.15 K, x1 = 0.1907	–	–	47.9	–
313.15 K, x1 = 0.2001	–	–	–	1.741
313.15 K, x1 = 0.243	1144.4	1590.6	–	–
313.15 K, x1 = 0.2846	–	–	47.7	–
313.15 K, x1 = 0.289	1152.9	1587.9	–	–
313.15 K, x1 = 0.2912	–	–	–	2.929
313.15 K, x1 = 0.34	–	–	47.6	–
313.15 K, x1 = 0.3456	1161.3	1585	–	–
313.15 K, x1 = 0.3866	–	–	47.6	–
313.15 K, x1 = 0.4015	–	–	–	5.101
313.15 K, x1 = 0.4217	1170.1	1580.8	–	–
313.15 K, x1 = 0.4807	–	–	–	8.106
313.15 K, x1 = 0.486	–	–	47	–
313.15 K, x1 = 0.5485	1180.9	1575.2	–	–
313.15 K, x1 = 0.5777	–	–	46.6	–
313.15 K, x1 = 0.5815	–	–	–	11.33
313.15 K, x1 = 0.6029	1184.6	1573.3	–	–
313.15 K, x1 = 0.6641	–	–	–	15.02
313.15 K, x1 = 0.6943	–	–	46.2	–
313.15 K, x1 = 0.7232	1191.6	1569.9	–	–
313.15 K, x1 = 0.7779	–	–	45.9	–
313.15 K, x1 = 0.7855	–	–	–	26.33
313.15 K, x1 = 0.8005	1195.3	1568.4	–	–
313.15 K, x1 = 0.835	–	–	45.7	–
313.15 K, x1 = 0.8575	1197.8	1567.3	–	–
313.15 K, x1 = 0.8875	–	–	–	44.04
313.15 K, x1 = 0.925	–	–	45.7	–
313.15 K, x1 = 0.9305	–	–	–	53.39
313.15 K, x1 = 0.9315	1200.9	1566.3	–	–
313.15 K, x1 = 0.9705	–	–	–	63.74
313.15 K, x1 = 1	1203.7	1565.6	45.7	71.1
323.15 K, x1 = 0.0115	–	–	54.5	–
323.15 K, x1 = 0.0165	1016.5	1561.9	–	–
323.15 K, x1 = 0.0185	–	–	52	–
323.15 K, x1 = 0.0271	–	–	50.5	–
323.15 K, x1 = 0.0372	–	–	49.5	–
323.15 K, x1 = 0.0379	1043.9	1571.9	–	–
323.15 K, x1 = 0.0456	–	–	48.7	–
323.15 K, x1 = 0.047	–	–	–	0.708
323.15 K, x1 = 0.0863	1083	1577.9	–	–
323.15 K, x1 = 0.0942	–	–	47.7	–
323.15 K, x1 = 0.095	–	–	–	0.867
323.15 K, x1 = 0.101	1091.5	1577.7	–	–
323.15 K, x1 = 0.134	1106.6	1576.8	–	–
323.15 K, x1 = 0.1907	–	–	47.1	–
323.15 K, x1 = 0.2001	–	–	–	1.418
323.15 K, x1 = 0.243	1137.2	1569.9	–	–
323.15 K, x1 = 0.2846	–	–	46.9	–
323.15 K, x1 = 0.289	1145.6	1566.7	–	–
323.15 K, x1 = 0.2912	–	–	–	2.295
323.15 K, x1 = 0.34	–	–	46.6	–
323.15 K, x1 = 0.3456	1153.8	1562.9	–	–
323.15 K, x1 = 0.3866	–	–	46.4	–
323.15 K, x1 = 0.4015	–	–	–	3.991
323.15 K, x1 = 0.4217	1162.6	1558.9	–	–
323.15 K, x1 = 0.4807	–	–	–	5.631
323.15 K, x1 = 0.486	–	–	46.1	–
323.15 K, x1 = 0.5485	1173.4	1553.2	–	–
323.15 K, x1 = 0.5777	–	–	45.8	–
323.15 K, x1 = 0.5815	–	–	–	7.929
323.15 K, x1 = 0.6029	1177.2	1551.3	–	–
323.15 K, x1 = 0.6641	–	–	–	10.77
323.15 K, x1 = 0.6943	–	–	45.6	–
323.15 K, x1 = 0.7232	1184.2	1548	–	–
323.15 K, x1 = 0.7779	–	–	45.3	–
323.15 K, x1 = 0.7855	–	–	–	18.47
323.15 K, x1 = 0.8005	1188	1546.4	–	–
323.15 K, x1 = 0.835	–	–	45.1	–
323.15 K, x1 = 0.8575	1190.6	1545.2	–	–
323.15 K, x1 = 0.8875	–	–	–	27.32
323.15 K, x1 = 0.925	–	–	45.1	–
323.15 K, x1 = 0.9305	–	–	–	34.39
323.15 K, x1 = 0.9315	1193.8	1544.1	–	–
323.15 K, x1 = 0.9705	–	–	–	40.41
323.15 K, x1 = 1	1196.7	1543.5	45.1	45.56
